Among the test systems are 786-0; A498; A549; COLO 205; EKVX; HL-60; HT-29; Hs-578T; LOX IMVI; MDA-N; OVCAR-4; OVCAR-5; RPMI-8226; SK-OV-3; SW-620; TK-10; UACC-257; UACC-62; MOLT-4; SF-539.
Common to all, as to experiment: NCI-60 cell line screen, 48 h

“And” between values parts separate entries of the source, which are not always exact repeats. Equal entries are not always repeated.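 In this assay, cells in 96-well plates receive the compound at five concentrations for 48 hours. Endpoints are linearly interpolated between the surrounding concentrations. GI50 marks 50% less growth.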 The source made the active and inactive calls. Cut-off read from the data, not from the text of the source: active = GI50 up to about 1.1 µM and inactive = higher. Where a SMILES comes first, the peptide text is derived from it. The star is where a group is joined. Cbz = O=C(OCc1ccccc1)*

With `CN(C)Cc1cc(Cl)c(O)c(CN(C)C)c1`, the GI50 with 786-0, in the experiment with A498, with A549, in the experiment on COLO 205, in the experiment with EKVX and with HL-60 was > 100 µM (inactive) in each case. Moreover, the GI50 with HT-29, with Hs-578T, in the experiment on LOX IMVI, in the experiment on MDA-N, in the experiment with OVCAR-4 and in the experiment with OVCAR-5 was > 100 µM (inactive) throughout. In addition, the GI50 in the experiment with RPMI-8226, in the experiment with SK-OV-3, in the experiment on SW-620, in the experiment with TK-10, in the experiment on UACC-257 and in the experiment with UACC-62 was > 100 µM (inactive) throughout.
As to `O=C(O)c1oc(C(=O)O)c(C(=O)O)c1C(=O)O`, the GI50 in the experiment with 786-0, with A498, in the experiment on A549, in the experiment on EKVX, in the experiment on HL-60 and in the experiment with HT-29 was > 100 µM (inactive) throughout. In addition, the GI50 in the experiment on Hs-578T, in the experiment with LOX IMVI, in the experiment on MDA-N, with MOLT-4, in the experiment with OVCAR-4 and in the experiment on OVCAR-5 was > 100 µM (inactive) throughout. Further, the GI50 in the experiment on RPMI-8226, in the experiment with SW-620, in the experiment with TK-10, in the experiment on UACC-257 and in the experiment on UACC-62 was > 100 µM (inactive) each time.
As for `COC(=O)C1=C(C)NC(C)=C(C(=O)OC)C1c1cccc(NO)c1`, the GI50 in the experiment with 786-0 is 15 µM (inactive); in the experiment on A498 it was > 100 µM (inactive); in the experiment on A549 it was > 100 µM (inactive); with COLO 205, 16.7 µM (inactive); in the experiment with EKVX, 22.2 µM (inactive); with HT-29, 16 µM (inactive). Further, the GI50 in the experiment on Hs-578T is 18.4 µM (inactive); in the experiment on LOX IMVI it was 16 µM (inactive); in the experiment with MDA-N, 15.1 µM (inactive); in the experiment on OVCAR-4, 13.9 µM (inactive); with OVCAR-5 it was 16.4 µM (inactive); in the experiment with RPMI-8226, > 100 µM (inactive). Also, the GI50 in the experiment on SF-539 is 17.4 µM (inactive); in the experiment on SK-OV-3, > 100 µM (inactive); with SW-620, 13.7 µM (inactive); with TK-10, 14.2 µM (inactive); in the experiment with UACC-257, 14.4 µM (inactive); with UACC-62, 17.5 µM (inactive).
`C/C(=N\O)c1ccc2cc(Br)c3ccccc3c2c1`: the GI50 in the experiment with 786-0 is 15.1 µM (inactive); in the experiment with A498, 17.7 µM (inactive); in the experiment on A549, 37 µM (inactive); with EKVX it was 19.1 µM (inactive); in the experiment with HL-60, 20.7 µM (inactive); in the experiment on HT-29, 2.89 µM (inactive). Besides, the GI50 was 23.9 µM (inactive) with Hs-578T; 15.6 µM (inactive) in the experiment on LOX IMVI; 15.7 µM (inactive) with MDA-N; 61.5 µM (inactive) with OVCAR-4; 11.5 µM (inactive) with OVCAR-5; 17 µM (inactive) in the experiment on RPMI-8226. Also, the GI50 in the experiment on SK-OV-3 was 32.3 µM (inactive); in the experiment with SW-620, 23.1 µM (inactive); in the experiment on TK-10, 20.3 µM (inactive); in the experiment on UACC-257, 16.9 µM (inactive); in the experiment on UACC-62, 17.7 µM (inactive).
Regarding `COc1ccc(-n2c(C)nc3ccc(NC4OCC(O)C(O)C4O)cc3c2=O)cc1` (centres undefined), the GI50 in the experiment on 786-0 was 34 µM (inactive) and 30.5 µM (inactive); with A498, > 100 µM (inactive); in the experiment on COLO 205, 42.6 µM (inactive) and 83 µM (inactive); in the experiment on EKVX it was > 100 µM (inactive); in the experiment with HL-60 it was 26.4 µM (inactive) and 28.9 µM (inactive); in the experiment with HT-29, 24 µM (inactive) and 25.6 µM (inactive). The GI50 in the experiment with Hs-578T was 51.8 µM (inactive) and 41.8 µM (inactive); with LOX IMVI it was 18.8 µM (inactive) and 22.5 µM (inactive); in the experiment with MDA-N it was 61.9 µM (inactive) and 62.4 µM (inactive); in the experiment on MOLT-4 it was 22.3 µM (inactive) and 31.5 µM (inactive); with OVCAR-4, > 100 µM (inactive); in the experiment on OVCAR-5 it was > 100 µM (inactive). In addition, the GI50 was 26.5 µM (inactive) and 20 µM (inactive) in the experiment with RPMI-8226; 27.1 µM (inactive) and 36.5 µM (inactive) in the experiment with SW-620; > 100 µM (inactive) with TK-10; > 100 µM (inactive) in the experiment with UACC-257; 39.4 µM (inactive) and 31.9 µM (inactive) with UACC-62.
As to `COc1cc2c(cc1O)c(O)cc1c3cc(OC)c(OC)cc3c[n+](C)c21`, the GI50 is 7.4 µM (inactive) in the experiment with 786-0; > 100 µM (inactive) in the experiment with A498; 44 µM (inactive) in the experiment with A549; > 43.3 µM (inactive) in the experiment with COLO 205; > 100 µM (inactive) in the experiment on EKVX; 15.2 µM (inactive) with HT-29. In addition, the GI50 is 4.23 µM (inactive) with Hs-578T; 16.2 µM (inactive) with LOX IMVI; 17.7 µM (inactive) in the experiment with MDA-N; 2.86 µM (inactive) with MOLT-4; > 80.5 µM (inactive) with OVCAR-4; > 100 µM (inactive) in the experiment on OVCAR-5. Besides, the GI50 was > 32.8 µM (inactive) in the experiment on RPMI-8226; 3.65 µM (inactive) in the experiment on SF-539; > 100 µM (inactive) in the experiment on SK-OV-3; 28.2 µM (inactive) in the experiment on SW-620; > 100 µM (inactive) in the experiment on TK-10; 51.8 µM (inactive) in the experiment on UACC-257. Moreover, the GI50 in the experiment with UACC-62 is 4.34 µM (inactive).
For the compound `CC[C@H]1C=CCC[C@@]2(C[C@@H]3CC[C@@H]4[C@H](C(=O)OCCCCCCCCCCCCCCCC(=O)N(CCCN)CCCCN)[C@]5(CCC[C@@H](C)O5)NC(=[N+]34)N2)O1`, the GI50 with 786-0 was 0.0229 µM (active); with A498, 1.56 µM (inactive); in the experiment on A549 it was 0.0365 µM (active); in the experiment on COLO 205 it was 0.0336 µM (active); in the experiment with EKVX, 0.11 µM (active); in the experiment with HT-29, 0.0364 µM (active). Also, the GI50 in the experiment with Hs-578T is 0.0875 µM (active); in the experiment with LOX IMVI, 0.018 µM (active); in the experiment with MDA-N, 0.0121 µM (active); with MOLT-4, 0.0155 µM (active); with OVCAR-4 it was 1.34 µM (inactive); with OVCAR-5, 0.108 µM (active). Also, the GI50 was 0.0344 µM (active) with RPMI-8226; 0.0679 µM (active) with SF-539; 0.136 µM (active) in the experiment on SK-OV-3; 0.0547 µM (active) with SW-620; 1.23 µM (inactive) in the experiment on TK-10; 0.0171 µM (active) with UACC-257. Further, the GI50 in the experiment on UACC-62 was 0.0185 µM (active).
For `COc1ccc2[nH]cc(C(=O)C(=O)NC34CC5CC(CC(C5)C3)C4)c2c1`, the GI50 in the experiment with 786-0 is 8.09 µM (inactive); in the experiment with A498, 43.8 µM (inactive); in the experiment with A549, 26.2 µM (inactive); with COLO 205 it was 6.9 µM (inactive); with EKVX, > 50.1 µM (inactive); in the experiment on HT-29, 2.08 µM (inactive). Moreover, the GI50 with Hs-578T is 21.4 µM (inactive); in the experiment on LOX IMVI it was 7.21 µM (inactive); with MDA-N, 84.7 µM (inactive); in the experiment with MOLT-4 it was 2.66 µM (inactive); in the experiment with OVCAR-4 it was 29.6 µM (inactive); with OVCAR-5, 35.2 µM (inactive). For the same compound, the GI50 with RPMI-8226 is 4.69 µM (inactive); in the experiment on SF-539, 14 µM (inactive); with SK-OV-3, 73.3 µM (inactive); in the experiment with SW-620, 38.9 µM (inactive); with TK-10, 48.8 µM (inactive); in the experiment on UACC-257 it was 67.5 µM (inactive). Also, in the experiment with UACC-62, the GI50 is 23.8 µM (inactive).
As to `CN(C)CCO/N=C1/C=C2CC[C@H]3[C@@H]4CC[C@H](O)[C@@]4(C)CC[C@@H]3[C@@]2(C)CC1`, the GI50 with 786-0 was 8.85 µM (inactive); with A498, 15.7 µM (inactive); in the experiment with A549 it was 18.3 µM (inactive); in the experiment with COLO 205 it was 16.2 µM (inactive); with EKVX it was 15.6 µM (inactive); in the experiment on HT-29 it was 1.05 µM (active). Moreover, the GI50 in the experiment on Hs-578T is 4.91 µM (inactive); in the experiment with LOX IMVI, 15.9 µM (inactive); with MDA-N it was 3.72 µM (inactive); with MOLT-4, 8.55 µM (inactive); with OVCAR-4 it was 2.49 µM (inactive); in the experiment on OVCAR-5 it was 12.5 µM (inactive). In addition, the GI50 in the experiment with RPMI-8226 is 25.2 µM (inactive); in the experiment on SF-539, 3.51 µM (inactive); in the experiment on SK-OV-3, 8.67 µM (inactive); in the experiment with SW-620 it was 10.7 µM (inactive); in the experiment with TK-10, 11.1 µM (inactive); in the experiment with UACC-257, 12.9 µM (inactive). Further, the GI50 in the experiment with UACC-62 was 10.9 µM (inactive).
Regarding `CCOC(=O)C(CC(=O)OC)NC(=O)C(CC(=O)OC)NC(=O)C(CC(=O)OC)NC(=O)C(CC(=O)OC)NC(=O)OCc1ccccc1` (centres undefined) (Cbz-D(OMe)D(OMe)D(OMe)D(OMe)-OEt; configuration not given here), the GI50 in the experiment with 786-0, in the experiment with A498, in the experiment on A549, in the experiment with COLO 205, in the experiment on EKVX and in the experiment with HL-60 was > 100 µM (inactive) throughout. The GI50 in the experiment with HT-29, in the experiment on Hs-578T, in the experiment on MDA-N, in the experiment on MOLT-4, in the experiment with OVCAR-5 and in the experiment with RPMI-8226 was > 100 µM (inactive) each time. The GI50 in the experiment with SW-620, with TK-10, in the experiment with UACC-257 and with UACC-62 was > 100 µM (inactive) throughout.
